Test results: patent US11608338B2, “Imidazolonylquinolines and the use thereof as ATM kinase inhibitors” (priority 2015, dated 2023)

Assays:
Assay type in all cases: biochemical
PI3K p110δ/p85α (human) = PI3K p110δ/p85α (human) (Homo sapiens (Human), UniProt O00329); assay: PI3K p110δ/p85α (human), non-radioactive assay (HTRF); conditions: ATM versus PI3Kdelta
Method: PI3K p110δ/p85α (Human), Non-Radioactive Assay
(§1) PI3K p110δ/p85α (human) was incubated in an assay buffer comprising 10 μM phosphatidylinositol 4,5-bisphosphate and MgATP (concentration as necessary). The reaction was initiated by addition of MgATP solution. After an incubation time of 30 min at room temperature, the reaction was stopped by addition of a solution consisting of EDTA and biotinylated phosphatidylinositol 3,4,5-trisphosphate. Finally, the detection buffer, consisting of a europium-labelled anti-GST monoclonal antibody, a GST-labelled GRP1 PH domain and streptavidin allophycocyanin, was added. The plate was read out via homogeneous time-resolved fluorescence (HTRF) and the corresponding signals were evaluated via the formula HTRF=10000×(Em665 nm/Em620 nm).

PI3K (p120γ) (human) = PI3K (p120γ) (human) (Homo sapiens (Human), UniProt P48736); assay: PI3K (p120γ) (human), non-radioactive assay (HTRF); conditions: ATM versus PI3Kgamma
Method: PI3K (p120γ) (Human), Non-Radioactive Assay
as §1, with “(p120γ)” for “p110δ/p85α”, “nm). • MgATP=magnesium 5′-O-[hydroxy({[(hydroxyphosphinato)oxy]phosphinato}oxy)phosphoryl]adenosine • MgCl2=magnesium dichloride • EGTA=ethylene glycol bis(aminoethyl ether) N,N,N′,N′-tetraacetic acid • Tween 20=polysorbate 20 Medicament/Pharmaceutical Composition” for “nm).”

PI3K p110α/p85α (human) = PI3K p110α/p85α (human) (Homo sapiens (Human), UniProt P42336); assay: PI3K p110α/p85α (human), non-radioactive assay (HTRF); conditions: ATM versus PI3Kalpha
Method: PI3K p110α/p85α (Human), Non-Radioactive Assay
as §1, with “p110α/p85α” for “p110δ/p85α”, “After” for “After an”, “incubation” for “incubation time of 30 min”, “temperature for 40 minutes,” for “temperature,”

mTOR (human) = mTOR (human) (Homo sapiens (Human), UniProt P42345); assay: mTOR (human) radiometric kinase assay; conditions: ATM versus mTOR
Method: Furthermore, the effect, in particular inhibition, of other kinases and thus the selectivity of the compounds according to the invention can be determined with the aid of the following assay:
mTOR (human) was incubated with 50 mM HEPES pH 7.5, 1 mM EGTA, 0.01% Tween 20, 2 mg/ml of the substrate, 3 mM MnCl2 and [γ-^33P-ATP] (specific activity approximately 500 cpm/pmol, concentration as necessary). The reaction was initiated by addition of MgATP solution. After incubation at room temperature for 40 minutes, the reaction was stopped by addition of 3% phosphoric acid. 10 μl of the reaction solution were then transferred dropwise onto a P30 filtermat and washed three times for 5 min in 75 mM phosphoric acid and once in methanol, dried and evaluated by means of liquid scintillation counting.

Sequence of PI3K p110δ/p85α (human) (O00329 whole entry): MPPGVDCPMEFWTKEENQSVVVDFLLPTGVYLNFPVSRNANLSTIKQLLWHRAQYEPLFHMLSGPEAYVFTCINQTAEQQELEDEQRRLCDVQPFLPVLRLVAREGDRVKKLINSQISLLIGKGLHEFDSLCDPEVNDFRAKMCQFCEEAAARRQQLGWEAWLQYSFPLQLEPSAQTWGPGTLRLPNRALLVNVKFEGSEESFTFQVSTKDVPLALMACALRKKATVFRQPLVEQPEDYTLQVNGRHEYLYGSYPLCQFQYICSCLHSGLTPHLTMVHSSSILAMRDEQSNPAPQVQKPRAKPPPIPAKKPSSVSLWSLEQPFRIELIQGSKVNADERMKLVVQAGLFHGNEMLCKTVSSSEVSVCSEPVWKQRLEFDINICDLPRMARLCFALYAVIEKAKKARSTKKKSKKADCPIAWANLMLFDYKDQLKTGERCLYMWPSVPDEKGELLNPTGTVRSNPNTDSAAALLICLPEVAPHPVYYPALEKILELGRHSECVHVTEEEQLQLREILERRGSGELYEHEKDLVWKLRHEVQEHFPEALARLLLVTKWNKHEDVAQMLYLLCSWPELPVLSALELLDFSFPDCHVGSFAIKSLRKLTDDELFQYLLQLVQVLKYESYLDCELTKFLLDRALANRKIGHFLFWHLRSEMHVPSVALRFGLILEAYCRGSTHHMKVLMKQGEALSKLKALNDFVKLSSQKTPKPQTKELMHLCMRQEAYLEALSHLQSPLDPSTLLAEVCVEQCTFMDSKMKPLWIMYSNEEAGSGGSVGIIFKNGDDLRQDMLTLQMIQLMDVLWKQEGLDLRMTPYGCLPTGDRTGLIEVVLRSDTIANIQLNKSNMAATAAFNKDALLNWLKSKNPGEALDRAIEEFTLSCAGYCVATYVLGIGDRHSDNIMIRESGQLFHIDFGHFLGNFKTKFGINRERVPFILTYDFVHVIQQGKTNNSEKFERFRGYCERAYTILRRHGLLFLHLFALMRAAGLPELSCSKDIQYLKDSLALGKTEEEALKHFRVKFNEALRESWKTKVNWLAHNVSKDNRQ
Sequence of PI3K p110δ/p85α (human) (P27986 whole entry partner): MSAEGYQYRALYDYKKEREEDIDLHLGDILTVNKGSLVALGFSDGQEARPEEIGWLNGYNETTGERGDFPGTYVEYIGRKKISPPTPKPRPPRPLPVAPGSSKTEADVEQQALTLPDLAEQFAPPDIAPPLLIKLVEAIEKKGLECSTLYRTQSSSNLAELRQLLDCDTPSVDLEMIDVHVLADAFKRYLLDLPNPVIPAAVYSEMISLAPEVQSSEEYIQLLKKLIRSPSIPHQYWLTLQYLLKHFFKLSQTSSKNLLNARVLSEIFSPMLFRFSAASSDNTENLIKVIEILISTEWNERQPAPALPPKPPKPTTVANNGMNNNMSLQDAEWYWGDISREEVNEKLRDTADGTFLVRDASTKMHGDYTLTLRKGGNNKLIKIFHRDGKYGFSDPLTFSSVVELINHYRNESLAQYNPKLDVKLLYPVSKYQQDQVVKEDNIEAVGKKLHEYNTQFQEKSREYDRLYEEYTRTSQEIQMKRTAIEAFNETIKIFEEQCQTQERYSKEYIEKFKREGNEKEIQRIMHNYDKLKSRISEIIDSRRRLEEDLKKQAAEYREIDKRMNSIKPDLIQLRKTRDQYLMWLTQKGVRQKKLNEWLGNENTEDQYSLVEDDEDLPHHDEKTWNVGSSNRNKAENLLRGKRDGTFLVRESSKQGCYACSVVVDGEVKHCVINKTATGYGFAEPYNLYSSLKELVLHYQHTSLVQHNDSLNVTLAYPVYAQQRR
Sequence of PI3K p110α/p85α (human) (P42336 whole entry): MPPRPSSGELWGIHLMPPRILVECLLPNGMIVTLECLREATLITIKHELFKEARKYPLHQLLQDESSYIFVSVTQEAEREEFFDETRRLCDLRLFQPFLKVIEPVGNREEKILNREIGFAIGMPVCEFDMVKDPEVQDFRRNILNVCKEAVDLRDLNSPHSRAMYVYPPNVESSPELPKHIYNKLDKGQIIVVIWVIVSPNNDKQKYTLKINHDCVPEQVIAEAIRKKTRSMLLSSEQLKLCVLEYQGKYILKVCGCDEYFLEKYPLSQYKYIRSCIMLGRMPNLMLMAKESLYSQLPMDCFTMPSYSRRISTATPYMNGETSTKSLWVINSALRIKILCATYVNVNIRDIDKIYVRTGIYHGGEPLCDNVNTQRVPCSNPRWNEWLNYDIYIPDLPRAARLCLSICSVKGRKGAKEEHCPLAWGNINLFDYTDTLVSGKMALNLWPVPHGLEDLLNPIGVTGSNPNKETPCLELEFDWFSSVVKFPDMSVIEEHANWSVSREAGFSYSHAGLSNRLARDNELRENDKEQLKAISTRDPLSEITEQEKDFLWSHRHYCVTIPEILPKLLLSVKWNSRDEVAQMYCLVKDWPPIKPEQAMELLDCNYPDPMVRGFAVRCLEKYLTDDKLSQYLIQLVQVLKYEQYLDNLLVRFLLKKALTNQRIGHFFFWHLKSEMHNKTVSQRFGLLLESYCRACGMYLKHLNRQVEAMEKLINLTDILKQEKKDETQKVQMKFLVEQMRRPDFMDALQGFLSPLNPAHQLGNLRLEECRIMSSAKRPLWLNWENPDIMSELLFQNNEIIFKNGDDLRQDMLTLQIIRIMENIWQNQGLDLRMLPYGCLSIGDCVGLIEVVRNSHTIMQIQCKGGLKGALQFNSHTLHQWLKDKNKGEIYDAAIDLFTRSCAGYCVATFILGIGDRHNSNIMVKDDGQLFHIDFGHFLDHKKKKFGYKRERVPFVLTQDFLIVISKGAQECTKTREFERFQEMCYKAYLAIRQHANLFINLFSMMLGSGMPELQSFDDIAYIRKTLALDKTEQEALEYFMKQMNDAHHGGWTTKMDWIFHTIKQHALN
Sequence of PI3K p110α/p85α (human) (P27986 whole entry partner): as the sequence (P27986 whole entry partner) above
Sequence of PI3K (p120γ) (human) (P48736 whole entry): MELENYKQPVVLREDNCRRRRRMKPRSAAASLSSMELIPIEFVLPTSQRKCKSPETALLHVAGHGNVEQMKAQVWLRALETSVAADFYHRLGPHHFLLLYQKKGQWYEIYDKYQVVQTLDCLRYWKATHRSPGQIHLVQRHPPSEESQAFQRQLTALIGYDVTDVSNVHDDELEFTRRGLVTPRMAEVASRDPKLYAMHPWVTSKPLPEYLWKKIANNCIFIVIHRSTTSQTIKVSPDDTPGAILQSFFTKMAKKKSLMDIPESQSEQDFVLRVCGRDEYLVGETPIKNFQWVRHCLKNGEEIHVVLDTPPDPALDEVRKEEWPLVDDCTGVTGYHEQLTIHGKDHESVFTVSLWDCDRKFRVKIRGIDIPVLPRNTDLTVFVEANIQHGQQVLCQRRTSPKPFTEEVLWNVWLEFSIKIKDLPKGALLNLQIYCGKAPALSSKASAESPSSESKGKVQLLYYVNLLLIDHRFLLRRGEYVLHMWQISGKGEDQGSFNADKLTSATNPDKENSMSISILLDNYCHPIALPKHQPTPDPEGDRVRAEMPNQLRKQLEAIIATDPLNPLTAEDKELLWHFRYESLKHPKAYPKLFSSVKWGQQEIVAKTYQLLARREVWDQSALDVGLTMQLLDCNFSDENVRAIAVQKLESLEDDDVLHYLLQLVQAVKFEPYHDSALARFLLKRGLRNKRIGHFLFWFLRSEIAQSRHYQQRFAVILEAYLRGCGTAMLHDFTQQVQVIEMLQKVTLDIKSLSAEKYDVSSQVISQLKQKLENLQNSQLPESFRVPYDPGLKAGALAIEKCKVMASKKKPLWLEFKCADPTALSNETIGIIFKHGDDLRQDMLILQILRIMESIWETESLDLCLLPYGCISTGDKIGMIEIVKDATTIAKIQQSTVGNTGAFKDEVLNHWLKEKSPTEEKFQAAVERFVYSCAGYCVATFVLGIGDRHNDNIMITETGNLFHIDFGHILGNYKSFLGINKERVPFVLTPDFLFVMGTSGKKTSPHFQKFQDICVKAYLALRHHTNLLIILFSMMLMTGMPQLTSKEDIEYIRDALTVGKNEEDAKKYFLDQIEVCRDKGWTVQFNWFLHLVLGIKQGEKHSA

| SMILES | ratio of IC50 (ATM) and IC50 (PI3Kdelta), selectivity with respect to PI3Kdelta (PI3K p110δ/p85α (human)) | ratio of IC50 (ATM) and IC50 (PI3Kgamma), selectivity with respect to PI3Kgamma (PI3K (p120γ) (human)) | ratio of IC50 (ATM) and IC50 (PI3Kalpha), selectivity with respect to PI3Kalpha (PI3K p110α/p85α (human)) | ratio IC50 (ATM):IC50 (mTOR), selectivity with respect to mTOR (mTOR (human)) |
| --- | --- | --- | --- | --- |
| COCCOc1cnc(-n2c(=O)n(C)c3cnc4cc(OC)c(-c5cnn(C)c5)cc4c32)c(F)c1 [Example 66, 1-[3-Fluoro-5-(2-methoxy-ethoxy)-2-pyridyl]-7-methoxy-3-methyl-8-(1-methylpyrazol-4-yl)imidazo-[4,5-c]quinolin-2-one] | at least 2000 times | at least 2000 times | at least 2000 times | – |
| COc1cc2ncc3c(c2cc1-c1cnn(C)c1)n(-c1ncc(OCCO)cc1F)c(=O)n3C [Example 67, 1-[3-Fluoro-5-(2-hydroxy-ethoxy)-2-pyridyl]-7-methoxy-3-methyl-8-(1-methylpyrazol-4-yl)imidazo-[4,5-c]quinolin-2-one] | at least 2000 times | at least 2000 times | at least 2000 times | – |
| COc1cc2ncc3c(c2cc1-c1cnn(C)c1)n(-c1ncc(OC(F)F)cc1F)c(=O)n3C [Example 114, 1-(5-Difluoromethoxy-3-fluoropyridin-2-yl)-7-methoxy-3-methyl-8-(1-methyl-1H-pyrazol-4-yl)-1,3-dihydroimidazo[4,5-c]-quinolin-2-one] | at least 2000 times | at least 2000 times | at least 2000 times | at least 2000 times |
| COc1cc2ncc3c(c2cc1-c1c[nH]nc1C)n(-c1ncc(F)cc1F)c(=O)n3C [Example 117, 1-(3,5-Difluoropyridin-2-yl)-7-methoxy-3-methyl-8-(3-methyl-1H-pyrazol-4-yl)-1,3-dihydroimidazo[4,5-c]-quinolin-2-one] | at least 2000 times | at least 2000 times | at least 2000 times | – |
| COc1cc2ncc3c(c2cc1-c1cnn(C)c1)n(-c1cc2[nH]ccc2cn1)c(=O)n3C [Example 120, 7-Methoxy-3-methyl-8-(1-methyl-1H-pyrazol-4-yl)-1-(1H-pyrrolo[3,2-c]pyridin-6-yl)-1,3-dihydroimidazo-[4,5-c]quinolin-2-one] | at least 2000 times | at least 2000 times | at least 2000 times | at least 2000 times |
| COc1cc2ncc3c(c2cc1-c1cc[nH]n1)n(-c1cn(C)nc1C)c(=O)n3C [Example 121, 1-(1,3-Dimethyl-1H-pyrazol-4-yl)-7-methoxy-3-methyl-8-(1H-pyrazol-3-yl)-1,3-dihydroimidazo[4,5-c]-quinolin-2-one] | – | – | – | at least 2000 times |
| COc1cnc(-n2c(=O)n(C)c3cnc4cc(OC)c(-c5c[nH]nc5C)cc4c32)c(F)c1 [Example 122, 1-(3-Fluoro-5-methoxy-pyridin-2-yl)-7-methoxy-3-methyl-8-(3-methyl-1H-pyrazol-4-yl)-1,3-dihydro-imidazo[4,5-c]quinolin-2-one] | at least 2000 times | at least 2000 times | at least 2000 times | at least 2000 times |
| COc1cc2ncc3c(c2cc1-c1cnn(C)c1)n(-c1ncc(N2CCNCC2)cc1F)c(=O)n3C [Example 123, 1-(3-Fluoro-5-piperazin-1-yl-pyridin-2-yl)-7-methoxy-3-methyl-8-(1-methyl-1H-pyrazol-4-yl)-1,3-dihydro-imidazo[4,5-c]quinolin-2-one] | at least 2000 times | at least 2000 times | at least 2000 times | – |
| CCc1cncc(F)c1-n1c(=O)n(C)c2cnc3cc(OC)c(-c4cn(C)nn4)cc3c21 [Example 126, 1-(3-Ethyl-5-fluoropyridin-4-yl)-7-methoxy-3-methyl-8-(1-methyl-1H-1,2,3-triazol-4-yl)-1,3-dihydroimidazo-[4,5-c] quinolin-2-one] | at least 2000 times | at least 2000 times | at least 2000 times | at least 2000 times |
| CNC(=O)c1cnc(-n2c(=O)n(C)c3cnc4cc(OC)c(-c5cnn(C)c5)cc4c32)c(F)c1 [Example 138, 5-Fluoro-6-[7-methoxy-3-methyl-8-(1-methyl-1H-pyrazol-4-yl)-2-oxo-2,3-dihydroimidazo[4,5-c]-quinolin-1-yl]-N-methyl-nicotinamid] | – | – | – | at least 2000 times |
| COc1cc2ncc3c(c2cc1-c1cnn(C)c1)n(-c1cn(C)nc1F)c(=O)n3C [Example 141, 1-(3-Fluoro-1-methyl-1H-pyrazo1-4-yl)-7-methoxy-3-methyl-8-(1-methyl-1H-pyrazol-4-yl)-1,3-dihydro-imidazo[4,5-c]quinolin-2-one] | – | – | – | at least 2000 times |
| COc1cc2ncc3c(c2cc1-c1cn(C)nc1C)n(-c1c(F)cncc1OC(F)F)c(=O)n3C [Example 147, 1-(3-Difluoromethoxy-5-fluoropyridin-4-yl)-8-(1,3-dimethyl-1H-pyrazol-4-yl)-7-methoxy-3-methyl-1,3-dihydroimidazo[4,5-c]-quinolin-2-one] | – | – | – | at least 2000 times |
| CCc1cnccc1-n1c(=O)n(C)c2cnc3cc(OC)c(-c4cnn(CC)c4)cc3c21 [Example 157, 8-(1-Ethyl-1H-pyrazol-4-yl)-1-(3-ethylpyridin-4-yl)-7-methoxy-3-methyl-1,3-dihydroimidazo[4,5-c] quinolin-2-one] | – | – | – | at least 2000 times |
| COc1cc2ncc3c(c2cc1-c1cnn(C)c1)n(-c1ncc(OC2CNC2)cc1F)c(=O)n3C [Example 205, 1-[5-(Azetidin-3-yloxy)-3-fluoropyridin-2-yl]-7-methoxy-3-methyl-8-(1-methyl-1H-pyrazol-4-yl)-1,3-dihydroimidazo[4,5-c]-quinolin-2-one] | at least 2000 times | at least 2000 times | at least 2000 times | – |
